Tests used:
Format in all cases: biochemical
GECFINDER-Phe1 = target: T1, GECFINDER-Phe1 (Aneurinibacillus migulanus, UniProt P0C061); assay: Fluorescence dose-response of purified cpEGFP sensors (0.75 uM) in 100 mM Tris-HCl pH 7.5, room temperature, 1 mM ATP, 2.5 mM MgCl2; excitation 400, 460 or 480 nm by sensor, emission 510 nm; logistic five-parameter fit.; conditions: n = 3
T1 construct: gene grsA; GrsA-PheA-PCP; cpEGFP inserted in hinge B, linkers CC-DR
Procedure: Fig. 3 Dose–response curves and fluorescence spectrums of […]s. a, c, e, g, i, k Dose–response curve of purified […]s with increasing concentrations of ligand in 100 mM Tris-HCl buffer (pH=7.5). The normalized ΔF/F0 value increased after ligand binding. All data shown are mean ± S.D. (n = 3 biologically independent samples). b, d, f, h, j, l The fluorescence spectra of […]s changed as the ligand concentration increased. All data shown are mean ± S.D. (n = 3 biologically independent samples). Source data are provided as a Source data file.
The study conducted dose–response curve, substrate specificity, and fluorescent spectrum analyses in 100-mM Tris buffer (pH = 7.5), while pH stability experiments were performed in 100-mM Tris buffer at three different pH values (6.5, 7.5, and 8.5) at room temperature. […] protein at a concentration of 0.75 μM, various small molecule concentrations, 1 mM ATP, and 2.5 mM MgCl2 were used in the experiments. Fluorescent signals were detected using a Microplate Reader (Synergy H4, Bio Tek) at an excitation/emission wavelength of 460 nm/510 nm or 480 nm/510 nm. The dose-response curve was determined immediately after the addition of the analyte. The total duration of the measurement was 15 min, with readings taken at one-minute intervals. The dose-response curve was plotted using the fluorescence values obtained after achieving stability in the fluorescence signal. The dose-response curves were fitted using the logistic model LOGISTIC5 available in Origin 2021, which could provide a more adequate fit to asymmetric dose-response data[62],[63]. Excitation spectra were scanned from 300 to 540 nm with a step size of 5 nm, and the emission wavelength was set to 560 nm. Emission spectra were scanned from 470 to 700 nm with a step size of 5 nm, and the excitation wavelength was set to 450 nm. The thermal stability of […] was analyzed using the UNcle multifunctional protein stability analysis system. Measurements were performed in 20 mM MOPS buffer with 2 mM DTT at a sample concentration of 1 mg/mL. Absolute fluorescence quantum yields were measured using an absolute photoluminescence quantum yield spectrometer (FS5, Edinburgh).

GECFINDER-Phe3.1 = target: T2, GECFINDER-Phe3.1 (Aneurinibacillus migulanus, UniProt P0C061, F234I); assay: Fluorescence dose-response of purified affinity-lowered […]-Phe3 mutants with phenylalanine, 100 mM Tris pH 7.5, room temperature, 1 mM ATP, 2.5 mM MgCl2.
T2 construct: gene grsA
T2 sequence (P0C061 1-617 F234I): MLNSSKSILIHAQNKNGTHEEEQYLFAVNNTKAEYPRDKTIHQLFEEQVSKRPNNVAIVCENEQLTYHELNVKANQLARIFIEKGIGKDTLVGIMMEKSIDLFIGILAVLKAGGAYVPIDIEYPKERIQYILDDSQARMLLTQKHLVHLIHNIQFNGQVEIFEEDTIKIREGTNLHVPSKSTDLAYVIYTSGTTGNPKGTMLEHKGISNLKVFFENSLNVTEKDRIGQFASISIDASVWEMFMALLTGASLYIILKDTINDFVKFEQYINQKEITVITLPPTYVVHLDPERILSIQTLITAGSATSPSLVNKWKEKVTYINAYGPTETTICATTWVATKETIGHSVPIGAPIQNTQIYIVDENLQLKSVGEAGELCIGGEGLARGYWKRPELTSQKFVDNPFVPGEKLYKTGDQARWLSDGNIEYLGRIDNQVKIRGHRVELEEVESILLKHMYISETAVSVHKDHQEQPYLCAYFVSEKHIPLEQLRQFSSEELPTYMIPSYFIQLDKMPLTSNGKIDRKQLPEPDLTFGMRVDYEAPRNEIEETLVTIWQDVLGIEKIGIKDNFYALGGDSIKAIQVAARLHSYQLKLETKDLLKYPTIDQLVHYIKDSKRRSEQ
Source text: (§1) Generally, industrial amino acid-producing strains produce phenylalanine at the grams per liter level, which greatly exceeds the dynamic range of […]-Phe3. Thus, we had to re-engineer the affinity of […]-Phe3 without affecting its ligand specificity, for phenylalanine to enable the screening of industrial phenylalanine-producing strains First, we performed virtual alanine scanning on the amino acid residues near the substrate pocket of […]-Phe3 using Discovery Studio 2019. […] Subsequently, we performed virtual saturation mutations on the F234 site (Supplementary Fig. 8b) and selected F234I, which has a medium mutation energy value ranking, for experimental verification. […] To further reduce the affinity of the F234I mutant ([…]-Phe3.1) for phenylalanine, a site-saturation library of A301 based on […]-Phe3.1 was created and screened. […] The substrate specificity and thermal stability of […]-Phe3.2 were evaluated.
(§2) Fig. 5 […] applies for FADS sorting. a Dose–response curves of purified […]-Phe3, 3.1 and 3.2 with increasing concentrations of phenylalanine. b Phenylalanine biosynthesis pathway in C. glutamicum. Dotted and dashed lines represented feedback inhibition and repression, respectively. Two target genes were highlighted in red. […] RBS strength was determined using a GFP reporter system. Scale bar represented GFP fluorescence normalized with OD600 nm. […]

GECFINDER-Phe3.2 = target: T3, GECFINDER-Phe3.2 (Aneurinibacillus migulanus, UniProt P0C061, A301E/F234I); assay: as above
T3 construct: gene grsA
T3 sequence (P0C061 1-617 F234I/A301E): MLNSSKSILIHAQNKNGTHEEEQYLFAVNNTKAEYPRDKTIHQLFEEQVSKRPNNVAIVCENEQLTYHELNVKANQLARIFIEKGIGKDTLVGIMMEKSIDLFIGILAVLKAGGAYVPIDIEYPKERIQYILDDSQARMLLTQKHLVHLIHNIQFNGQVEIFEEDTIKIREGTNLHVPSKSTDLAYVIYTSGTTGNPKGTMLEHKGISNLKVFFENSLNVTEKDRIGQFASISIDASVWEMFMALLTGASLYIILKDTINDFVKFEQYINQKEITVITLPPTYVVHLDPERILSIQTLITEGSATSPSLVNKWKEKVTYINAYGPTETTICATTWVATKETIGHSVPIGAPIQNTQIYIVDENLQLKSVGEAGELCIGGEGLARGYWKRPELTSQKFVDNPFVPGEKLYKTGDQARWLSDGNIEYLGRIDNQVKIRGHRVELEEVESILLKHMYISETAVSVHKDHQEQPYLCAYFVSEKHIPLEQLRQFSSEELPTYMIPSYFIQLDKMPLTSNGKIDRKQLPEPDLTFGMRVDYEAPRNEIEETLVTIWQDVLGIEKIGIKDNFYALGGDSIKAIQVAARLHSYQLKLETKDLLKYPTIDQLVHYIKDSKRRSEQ
Source text: as §1, §2

T1 sequence (P0C061 1-617): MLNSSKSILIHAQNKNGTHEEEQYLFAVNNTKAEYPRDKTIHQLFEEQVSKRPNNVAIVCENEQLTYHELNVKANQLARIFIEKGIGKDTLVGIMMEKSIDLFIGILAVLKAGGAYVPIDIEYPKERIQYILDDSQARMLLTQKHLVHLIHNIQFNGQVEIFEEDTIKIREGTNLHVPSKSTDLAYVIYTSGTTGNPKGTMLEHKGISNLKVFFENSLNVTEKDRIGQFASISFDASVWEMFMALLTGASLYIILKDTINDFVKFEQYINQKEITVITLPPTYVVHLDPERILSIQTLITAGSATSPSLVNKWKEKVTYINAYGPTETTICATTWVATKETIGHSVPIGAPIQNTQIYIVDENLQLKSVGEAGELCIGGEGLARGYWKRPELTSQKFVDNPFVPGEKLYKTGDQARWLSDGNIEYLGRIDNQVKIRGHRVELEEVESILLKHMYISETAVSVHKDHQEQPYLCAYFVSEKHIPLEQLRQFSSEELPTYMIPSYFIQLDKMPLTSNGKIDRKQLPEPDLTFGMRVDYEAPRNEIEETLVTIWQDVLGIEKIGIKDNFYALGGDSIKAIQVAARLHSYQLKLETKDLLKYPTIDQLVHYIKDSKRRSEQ

`N[C@@H](Cc1ccccc1)C(=O)O` [Phe, phenylalanine] gave an EC50 (GECFINDER-Phe1) of 1.55 ± 0.23 µM, an EC50 (GECFINDER-Phe3.1) of 7.51 µM and an EC50 (GECFINDER-Phe3.2) of 67.6 µM.
